# From BindingDB's records for patent US11485738 (MIRATI THERAPEUTICS, INC., 2022)
# Target: Histone-binding protein RBBP4/Polycomb protein EED/Polycomb protein SUZ12/Zinc finger protein AEBP2 (Human, UniProt O75530+Q09028+Q15022+Q6ZN18)
# Assay: Enzymatic Activity Assay
# Protocol: An aliquot of each serial dilution of test compound was added to deep 384 well plate using Acoustic Technology instrument (Echo 550, LabCyte) containing reaction buffer (50 mM Tris-HCl (pH 8), 0.01% Brij35, 1 mM EDTA, 1 mM DTT, 1 mM PMSF and 1% DMSO), 10 nM purified PRC2 complex and 0.05 mg/ml core histone H3 in a 5 μl volume. The reaction was mixed gently and then pre-incubated for 20 min at 30° C. The enzymatic reaction was initiated by adding 1 uM S-Adenosyl-L-[methyl-3H]methionine and incubated for 1 hr at 30° C. After 1 hr, the reaction product was detected using a filter binding method and the amount of tritiated H3 core histone was quantitated using a scintillation counter.
# Histone-binding protein RBBP4/Polycomb protein EED/Polycomb protein SUZ12/Zinc finger protein AEBP2, sequence (O75530 whole entry): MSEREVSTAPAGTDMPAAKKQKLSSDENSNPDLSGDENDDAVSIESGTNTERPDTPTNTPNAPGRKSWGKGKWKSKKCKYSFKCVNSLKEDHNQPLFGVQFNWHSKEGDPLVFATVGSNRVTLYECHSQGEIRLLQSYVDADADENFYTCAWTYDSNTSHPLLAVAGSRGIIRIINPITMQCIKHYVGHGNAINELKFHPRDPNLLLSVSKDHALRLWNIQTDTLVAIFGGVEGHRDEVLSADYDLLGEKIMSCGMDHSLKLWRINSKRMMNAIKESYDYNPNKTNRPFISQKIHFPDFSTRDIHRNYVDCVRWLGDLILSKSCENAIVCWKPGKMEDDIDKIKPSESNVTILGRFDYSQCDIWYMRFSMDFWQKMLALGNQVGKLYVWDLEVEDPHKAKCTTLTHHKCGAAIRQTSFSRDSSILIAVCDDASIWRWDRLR
# Histone-binding protein RBBP4/Polycomb protein EED/Polycomb protein SUZ12/Zinc finger protein AEBP2, sequence (Q15022 whole entry): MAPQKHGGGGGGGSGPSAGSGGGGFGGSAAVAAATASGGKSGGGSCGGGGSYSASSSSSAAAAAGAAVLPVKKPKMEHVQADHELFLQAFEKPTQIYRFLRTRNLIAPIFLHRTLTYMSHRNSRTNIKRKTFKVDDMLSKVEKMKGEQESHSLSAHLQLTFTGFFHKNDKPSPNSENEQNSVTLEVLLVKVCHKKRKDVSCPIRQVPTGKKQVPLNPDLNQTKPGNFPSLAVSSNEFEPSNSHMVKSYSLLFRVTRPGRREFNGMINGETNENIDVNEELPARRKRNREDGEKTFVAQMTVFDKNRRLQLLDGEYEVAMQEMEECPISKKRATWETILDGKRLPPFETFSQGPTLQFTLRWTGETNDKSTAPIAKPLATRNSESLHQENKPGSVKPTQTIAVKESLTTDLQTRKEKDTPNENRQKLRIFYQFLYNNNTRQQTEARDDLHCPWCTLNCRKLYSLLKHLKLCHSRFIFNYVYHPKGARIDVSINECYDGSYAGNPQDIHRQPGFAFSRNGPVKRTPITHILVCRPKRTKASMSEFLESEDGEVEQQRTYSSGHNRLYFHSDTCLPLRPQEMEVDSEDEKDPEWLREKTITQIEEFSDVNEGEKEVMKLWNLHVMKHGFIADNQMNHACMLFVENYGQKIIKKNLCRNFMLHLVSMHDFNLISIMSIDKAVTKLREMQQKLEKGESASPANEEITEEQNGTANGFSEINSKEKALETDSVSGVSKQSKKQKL
# Histone-binding protein RBBP4/Polycomb protein EED/Polycomb protein SUZ12/Zinc finger protein AEBP2, sequence (Q6ZN18 whole entry): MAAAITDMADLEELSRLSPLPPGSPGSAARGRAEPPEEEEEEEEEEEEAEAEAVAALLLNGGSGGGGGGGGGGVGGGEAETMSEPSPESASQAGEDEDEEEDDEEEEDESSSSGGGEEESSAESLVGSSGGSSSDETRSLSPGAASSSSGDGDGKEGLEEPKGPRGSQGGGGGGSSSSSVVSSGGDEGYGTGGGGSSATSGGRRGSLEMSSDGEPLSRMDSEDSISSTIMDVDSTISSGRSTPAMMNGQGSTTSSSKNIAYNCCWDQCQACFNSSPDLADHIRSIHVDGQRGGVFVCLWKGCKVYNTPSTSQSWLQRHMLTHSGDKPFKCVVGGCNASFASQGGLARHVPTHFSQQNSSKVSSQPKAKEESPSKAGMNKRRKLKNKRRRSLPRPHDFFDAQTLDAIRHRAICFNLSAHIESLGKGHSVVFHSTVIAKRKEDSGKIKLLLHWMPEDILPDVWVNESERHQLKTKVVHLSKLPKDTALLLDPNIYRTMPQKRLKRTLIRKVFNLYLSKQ
# Histone-binding protein RBBP4/Polycomb protein EED/Polycomb protein SUZ12/Zinc finger protein AEBP2, sequence (Q09028 whole entry): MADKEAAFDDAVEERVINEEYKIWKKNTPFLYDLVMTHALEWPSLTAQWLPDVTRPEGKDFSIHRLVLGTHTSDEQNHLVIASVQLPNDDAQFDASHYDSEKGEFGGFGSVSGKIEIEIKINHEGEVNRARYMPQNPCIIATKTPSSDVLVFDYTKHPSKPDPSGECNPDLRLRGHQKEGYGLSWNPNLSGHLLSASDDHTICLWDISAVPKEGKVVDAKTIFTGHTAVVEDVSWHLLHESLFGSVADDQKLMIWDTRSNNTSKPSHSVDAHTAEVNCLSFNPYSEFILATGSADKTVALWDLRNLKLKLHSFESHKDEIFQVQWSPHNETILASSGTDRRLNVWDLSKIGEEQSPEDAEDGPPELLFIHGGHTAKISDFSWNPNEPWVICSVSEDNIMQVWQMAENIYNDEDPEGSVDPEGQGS
row,SMILES,IC50
1,"Cc1nc(N2CCOCC2)ccc1-c1cnc(NCc2c(F)ccc3c2CCO3)n2cc(C#N)nc12 [US11485738, Example 56]",< 0.1 µM
2,"Cc1cc(S(C)(=O)=O)ccc1-c1cnc(NCc2c(F)ccc3c2CCO3)n2cc(C#N)nc12 [US11485738, Example 87]",< 0.1 µM
